Experimental data from patent publication US20090061000A1, “PHARMACEUTICAL FORMULATION USE 030” (AstraZeneca AB, priority 2007, published 2009).

Columns and labels:
CYP2C9 = target: T1, CYP2C9 (Homo sapiens, UniProt P11712); assay: Cocktail drug-drug interaction study: tolbutamide pharmacokinetics as probe of CYP2C9 activity; assay type: in vivo; conditions: co-administration of 500 mg Compound A with tolbutamide 500 mg
T1 construct: from tissue
Excerpt: 24 healthy male subjects aged between 20 and 43 years received the following dosing regimens in random order: • 1.
The three treatments were separated by a wash-out period of 7 to 21 days.

thrombin = thrombin (Homo sapiens, UniProt P00734); conditions: free amidine metabolite of Compound A; cited from earlier work

T1 sequence (P11712 whole entry): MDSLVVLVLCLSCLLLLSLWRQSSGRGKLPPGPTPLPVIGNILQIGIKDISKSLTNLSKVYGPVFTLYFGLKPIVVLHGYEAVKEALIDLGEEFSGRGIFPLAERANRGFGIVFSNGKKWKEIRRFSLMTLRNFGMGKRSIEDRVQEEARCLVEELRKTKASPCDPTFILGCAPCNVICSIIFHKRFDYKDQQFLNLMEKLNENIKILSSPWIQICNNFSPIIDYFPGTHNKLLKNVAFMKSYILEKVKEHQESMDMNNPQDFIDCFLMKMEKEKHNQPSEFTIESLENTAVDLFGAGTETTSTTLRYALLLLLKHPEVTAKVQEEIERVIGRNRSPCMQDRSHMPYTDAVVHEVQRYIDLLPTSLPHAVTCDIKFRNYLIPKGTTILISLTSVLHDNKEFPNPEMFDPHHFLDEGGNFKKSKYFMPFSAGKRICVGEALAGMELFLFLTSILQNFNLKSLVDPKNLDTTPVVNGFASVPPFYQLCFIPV

SMILES | effect on CYP2C9 activity (influence on the pharmacokinetics of tolbutamide) (CYP2C9) | inhibition of thrombin (thrombin)
CO/N=C(\N)c1ccc(CNC(=O)[C@@H]2CCN2C(=O)[C@H](O)c2cc(Cl)cc(OC(F)F)c2)cc1 [Compound A, Ph(3-Cl)(5-OCHF2)—(R)CH(OH)C(O)—(S)Aze-Pab(OMe)] | no effect | –
N=C(N)c1ccc(CNC(=O)[C@@H]2CCN2C(=O)[C@H](O)c2cc(Cl)cc(OC(F)F)c2)cc1 [Compound C, Ph(3-Cl)(5-OCHF2)—(R)CH(OH)C(O)—(S)Aze-Pab] | – | has been found to inhibit thrombin
